Drawing on US11976083B2, “Inhibitors of peptidylarginine deiminases” (Gilead Sciences, Inc., priority 2020, dated 2024), this text covers IC50 for 17 compounds.

This experiment deals with T1, human PAD4 (Homo sapiens, UniProt Q9UM07).
T1 construct: human PAD4 (NM_012387), A2-P663, was PCR amplified; His-SUMO (N, cleaved yes); made in house; host or cells: E. coli BL21(DE3)
T1 sequence (Q9UM07 2-663): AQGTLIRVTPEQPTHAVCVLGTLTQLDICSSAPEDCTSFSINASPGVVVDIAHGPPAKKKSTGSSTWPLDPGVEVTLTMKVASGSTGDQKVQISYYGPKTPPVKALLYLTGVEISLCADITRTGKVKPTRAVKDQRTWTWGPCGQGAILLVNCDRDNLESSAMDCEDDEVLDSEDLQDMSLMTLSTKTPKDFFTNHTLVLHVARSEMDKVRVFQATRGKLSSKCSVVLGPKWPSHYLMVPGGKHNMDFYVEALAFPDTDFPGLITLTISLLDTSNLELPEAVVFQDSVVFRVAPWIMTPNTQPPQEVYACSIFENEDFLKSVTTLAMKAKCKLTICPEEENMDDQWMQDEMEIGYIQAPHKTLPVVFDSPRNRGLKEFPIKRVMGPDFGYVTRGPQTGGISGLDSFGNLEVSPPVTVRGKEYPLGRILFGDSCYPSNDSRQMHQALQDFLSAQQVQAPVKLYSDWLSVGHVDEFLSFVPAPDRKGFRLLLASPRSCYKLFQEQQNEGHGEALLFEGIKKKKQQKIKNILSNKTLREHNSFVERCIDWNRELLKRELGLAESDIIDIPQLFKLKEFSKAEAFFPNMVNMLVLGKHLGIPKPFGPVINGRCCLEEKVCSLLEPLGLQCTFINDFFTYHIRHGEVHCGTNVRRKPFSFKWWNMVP
The experiment in a line: In vitro PAD4 BAEE biochemical assay. The conditions noted are these: BAEE substrate 3 mM, 5 nM PAD4, 2 mM calcium chloride; geometric mean of multiple experiments. An outline of the steps:
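Ammonia produced by BAEE deimination (3 mM substrate, 2 h, 25 °C) was read as fluorescent isoindole after o-phthalaldehyde/DTT derivatization, ex 405 nm/em 535 nm. Human PAD4 at 5 nM final, 2 mM calcium, pH 7.6 MOPS; compound preincubated 30 min. IC50s, normalized to BB-Cl-Amidine and DMSO controls, were geometric-mean averaged.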
On to `C[C@H]1NC(=O)c2ccc(Cl)nc2CCCCCn2c(-c3nc4cc(C(=O)N5C[C@H](N)[C@@H]6CC[C@H]5C6)cc(F)c4n3CC(F)F)cc3ccc1nc32` [Example 925, (2~{R})-17-[5-[(1~{S),4~{R},5~ {R})-4-amino-2-azabicyclo[3.2.1]octane-2-carbonyl]-1-(2,2-difluoroethyl)-7-fluoro-benzimidazol-2-yl]-8-chloro-2-methyl-3,9,16,22-tetrazatetracyclo[14.5.2.0^ {5,10}.0^{19,23}]tricosa-1(22),5(10),6,8,17,19(23),20-heptaen-4-one], for which the IC50 was 40 nM.

`COc1cc(C(=O)N2C[C@H](N)[C@@H]3CC[C@H]2C3)cc2nc(-c3cc4ccc5nc4n3CCCCCc3cc(F)c(F)cc3C(=O)N[C@@H]5C)n(C)c12` [Example 927, (2~{R})-17-[5-[(1~{S},4~{R}, 5~{R})-4-amino-2-azabicyclo [3.2.1]octane-2-carbonyl]-7-methoxy-1-methyl-benzimidazol-2-yl]-7,8-difluoro-2-methyl-3,16,22-triazatetracyclo[14.5.2.0^ {5,10}.0^{19,23}]tricosa-1(22),5(10),6,8,17,19(23),20-heptaen-4-one]: the IC50 was determined as 49 nM. In the case of `COc1cc(C(=O)N2C[C@H](N)[C@@H]3CC[C@H]2C3)cc2nc(-c3cc4ccc5nc4n3CCCCCCC(C)(C)C(=O)N[C@@H]5C)c(C)n12` [Example 928, (11~{R})-17-[7-[(1~{S},4~{R}, 5~{R})-4-amino-2-azabicyclo [3.2.1]octane-2-carbonyl]-5-methoxy-3-methyl-imidazo [1,2-a]pyridin-2-yl]-8,8,11-trimethyl-1,10,19-triazatricyclo [10.5.2.0^{15,18}]nonadeca-12(19),13,15(18), 16-tetraen-9-one], the IC50 stood at 51 nM. The same measure for `COc1cc(C(=O)N2C[C@H](N)[C@@H]3CC[C@H]2C3)cc2nc(-c3cc4ccc5nc4n3CCCCC[C@H]3[C@H](C(=O)N[C@@H]5C)C3(F)F)c(C)n12` [Example 929, (2~{R},5~{R},7~{S})-14-[7-[(1~{S},4~{R},5~{R})-4-amino-2-azabicyclo[3.2.1]octane-2-carbonyl]-5-methoxy-3-methyl-imidazo[1,2-a]pyridin-2-yl]-6,6-difluoro-2-methyl-3,13,19-triazatetracyclo[11.5.2.0^ {5,7}.0^{16,20}]icosa-1(19), 14,16(20),17-tetraen-4-one]: 18 nM; for `COc1cc(C(=O)N2C[C@H](N)[C@@H]3CC[C@H]2C3)cc2nc(-c3cc4ccc5nc4n3CCCCC[C@H]3[C@H](C(=O)N[C@@H]5C)C3(F)F)n(C3CC3)c12` [Example 930, (2~{R},5~{R},7~{S})-14-[5-[(1~{S},4~{R},5~{R})-4-amino-2-azabicyclo[3.2.1]octane-2-carbonyl]-1-cyclopropyl-7-methoxy-benzimidazol-2-yl]-6,6-difluoro-2-methyl-3,13,19-triazatetracyclo[11.5.2.0^ {5,7}.0^{16,20}]icosa-1(19), 14,16(20),17-tetraen-4-one]: 22 nM; for `COc1cc(C(=O)N2C[C@H](N)[C@@H]3CC[C@H]2C3)cc2nc(-c3cc4ccc5nc4n3CC(F)(F)CCCOC3(CC3)C(=O)N[C@@H]5C)n(C3CC3)c12` [Example 931, (11~{R})-17-[5-[(1~{S},4~{R}, 5~{R})-4-amino-2-azabicyclo [3.2.1]octane-2-carbonyl]-1-cyclopropyl-7-methoxy-benzimidazol-2-yl]-3,3-difluoro-11-methyl-spiro[7-oxa-1,10,19-triazatricyclo[10.5.2.0^ {15,18}]nonadeca-12(19), 13,15(18),16-tetraene-8,1′-cyclopropane]-9-one]: 64 nM. The same measure for `COc1cc(C(=O)N2C[C@H](N)[C@@H]3CC[C@H]2C3)cc2nc(-c3cc4ccc5nc4n3CCCCCc3nc(Cl)ccc3C(=O)NC5(C)C)n(C)c12` [Example 932, 17-[5-[(1~{S},4~{R},5~{R})-4-amino-2-azabicyclo[3.2.1]octane-2-carbonyl]-7-methoxy-1-methyl-benzimidazol-2-yl]-8-chloro-2,2-dimethyl-3,9,16,22-tetrazatetracyclo[14.5.2.0^ {5,10}.0^{19,23}]tricosa-1(21),5(10),6,8,17,19,22-heptaen-4-one]: 58 nM.

On to `COc1cc(C(=O)N2C[C@H](N)[C@@H]3CC[C@H]2C3)cc2nc(-c3cc4ccc5nc4n3CCCCC[C@]3(F)C[C@H]3C(=O)NC5(C)C)n(C)c12` [Example 933, (5~{S},7~{S})-14-[5-[(1~{S},4~{R},5~{R})-4-amino-2-azabicyclo[3.2.1]octane-2-carbonyl]-7-methoxy-1-methyl-benzimidazol-2-yl]-7-fluoro-2,2-dimethyl-3,13,19-triazatetracyclo[11.5.2.0^ {5,7}.0^{16,20}]icosa-1(18), 14,16,19-tetraen-4-one], for which the IC50 was 27 nM. The same measure for `COc1cc(C(=O)N2C[C@H](N)[C@@H]3CC[C@H]2C3)cc2nc(-c3cc4ccc5nc4n3CCCCCc3nc(C(F)(F)F)ncc3C(=O)N[C@@H]5C)n(C3CC3)c12` [Example 934, (2~{R})-17-[5-[(1~{S),4~{R},5~ {R})-4-amino-2-azabicyclo [3.2.1]octane-2-carbonyl]-1-cyclopropyl-7-methoxy-benzimidazol-2-yl]-2-methyl-8-(trifluoromethyl)-3,7,9,16,22-pentazatetracyclo[14.5.2.0^ {5,10}.0^{19,23}]tricosa-1(21),5(10),6,8,17,19,22-heptaen-4-one]: 103 nM. As to `COc1cc(C(=O)N2C[C@H](N)[C@@H]3CC[C@H]2C3)cc2nc(-c3cc4ccc5nc4n3CCCCCc3cc(F)cc(F)c3C(=O)N[C@@H]5C)n(C)c12` [Example 935, (2~{R})-17-[5-[(1~{S),4~{R},5~ {R})-4-amino-2-azabicyclo[3.2.1]octane-2-carbonyl]-7-methoxy-1-methyl-benzimidazol-2-yl]-6,8-difluoro-2-methyl-3,16,22-triazatetracyclo[14.5.2.0^ {5,10}.0^{19,23}]tricosa-1(21),5(10),6,8,17,19,22-heptaen-4-one], the IC50 stood at 29 nM.

`COc1cc(C(=O)N2C[C@H](N)[C@@H]3CC[C@H]2C3)cc2nc(-c3cc4ccc5nc4n3CCCCCc3ccccc3C(=O)N[C@@H]5C)c(C)n12` [Example 936, (2~{R})-17-[7-[(1~{S},4~{R}, 5~{R})-4-amino-2-azabicyclo [3.2.1]octane-2-carbonyl]-5-methoxy-3-methyl-imidazo [1,2-a]pyridin-2-yl]-2-methyl-3,16,22-triazatetracyclo [14.5.2.0^{5,10).0^{19,23}] tricosa-1(21),5(10),6,8,17,19,22-heptaen-4-one]: the IC50 is 39 nM. `COc1cc(C(=O)N2CCC[C@@H](N)C2)cc2nc(-c3cc4ccc5nc4n3CCCCCCCCS(=O)(=O)N5C)n(C)c12` [Example 937]: the IC50 amounted to 187 nM. For the compound `CCn1c(-c2cc3ccc4nc3n2CCCCC[C@]2(F)C[C@H]2C(=O)N[C@@H]4C)nc2cc(C(=O)N3C[C@H](N)[C@@H]4CC[C@H]3C4)cc(F)c21` [Example 938, (2~{R},5~{S},7~{S})-14-[5-[(1~{S),4~{R},5~{R})-4-amino-2-azabicyclo[3.2.1]octane-2-carbonyl]-1-ethyl-7-fluoro-benzimidazol-2-yl]-7-fluoro-2-methyl-3,13,19-triazatetracyclo[11.5.2.0^ {5,7}.0^{16,20}]icosa-1(19), 14,16(20),17-tetraen-4-one], the IC50 came to 28 nM. Regarding `CCn1c(-c2cc3ccc4nc3n2CCCCCc2nc(Cl)ccc2C(=O)N[C@@H]4C)nc2cc(C(=O)N3C[C@H](N)[C@@H]4CC[C@H]3C4)cc(F)c21` [Example 939, (2~{R})-17-[5-[(1~{S),4~{R}, 5~{R})-4-amino-2-azabicyclo [3.2.1]octane-2-carbonyl]-1-ethyl-7-fluoro-benzimidazol-2-yl]-8-chloro-2-methyl-3,9,16,22-tetrazatetracyclo[14.5.2.0^ {5,10}.0^{19,23}]tricosa-1(22),5(10),6,8,17,19(23),20-heptaen-4-one], the IC50 came out at 44 nM. In the case of `COc1cc(C(=O)N2C[C@H](N)[C@@H]3CC[C@H]2C3)cc2nc(-c3cc4ccc5nc4n3CC(F)(F)CCCCC3(CC3)C(=O)N[C@@H]5C)n(C3CC3)c12` [Example 940, (11~{R})-17-[5-[(1~{S},4~{R}, 5~{R})-4-amino-2-azabicyclo [3.2.1]octane-2-carbonyl]-1-cyclopropyl-7-methoxy-benzimidazol-2-yl]-3,3-difluoro-11-methyl-spiro[1,10,19-triazatricyclo [10.5.2.0^{15,18}]nonadeca-12(19),13,15(18),16-tetraene-8,1′-cyclopropane]-9-one], the IC50 came to 80 nM. On to `COc1cc(C(=O)N2C[C@H](N)[C@@H]3CC[C@H]2C3)cc2nc(-c3cc4ccc5nc4n3CC(F)(F)CCCCC(C)(C)C(=O)N[C@@H]5C)n(C3CC3)c12` [Example 941, (11~{R})-17-[5-[(1~{S},4~{R}, 5~{R})-4-amino-2-azabicyclo [3.2.1]octane-2-carbonyl]-1-cyclopropyl-7-methoxy-benzimidazol-2-yl]-3,3-difluoro-8,8,11-trimethyl-1,10,19-triazatricyclo[10.5.2.0^{15,18}] nonadeca-12(19), 13,15(18),16-tetraen-9-one], for which the IC50 was determined as 68 nM. `COc1cc(C(=O)N2C[C@H](N)[C@@H]3CC[C@H]2C3)cc2nc(-c3cc4ccc5nc4n3CCCCCc3cc(C(F)(F)F)ncc3C(=O)N[C@@H]5C)n(C3CC3)c12` [Example 942, (2~{R})-17-[5-[(1~{S},4~{R},5~ {R})-4-amino-2-azabicyclo [3.2.1]octane-2-carbonyl]-1-cyclopropyl-7-methoxy-benzimidazol-2-yl]-2-methyl-8-(trifluoromethyl)-3,7,16,22-tetrazatetracyclo[14.5.2.0^ {5,10).0^{19,23}]tricosa-1(22), 5(10),6,8,17,19(23),20-heptaen-4-one]: the IC50 is 72 nM.
